From patent US11851695B2, “Preparing novel steviol glycosides by bioconversion” (The Coca-Cola Company, priority 2016, dated 2023)

Assay: Sensory evaluation by a trained panel, single sip protocol
Format: in vivo
Conditions: mean panel score, 400 ppm in water at 4° C.; for Bitter Aftertaste Intensity / Sweet Linger Intensity: 1 minute after tasting; for Overall Max Bitterness / Overall Max Sweetness: from sip up to 1 minute; for Bitter Intensity In Mouth: maximum bitterness in mouth during 5 seconds; for Sweet Intensity In Mouth: maximum sweetness in mouth during 5 seconds
Protocol: The sensory profiles of CC-00326, CC-00342 and CC-00345 were compared to rebaudioside M.
A trained panel evaluated the various samples. Samples were evaluated using a single sip protocol as follows: • Samples were served at approximately 4° C. • Panelists were instructed to take 1 sip of the sample, hold in mouth for 5 seconds, expectorate, and rate the given attributes • A 5 minute break was placed between each sample and panelists were instructed to cleanse their palates with at least 1 bite of unsalted cracker and 2 sips of filtered water • Due to limited sample quantity panelists were given 7 mL aliquots of each sample • Samples were randomized within each session for each panelist • All samples were presented in replicate in each session
Samples were evaluated for the following: • Sweet taste intensity: maximum level of sweetness in mouth during 5 seconds • Bitter taste intensity: maximum level of bitterness in mouth during 5 seconds • Overall maximum sweet intensity: maximum sweet intensity experienced from the time the sip is taken up to 1 minute • Overall maximum bitter intensity: […] experienced from the time the sip is taken up to 1 minute • Sweet linger intensity: sweet intensity 1 minute after tasting the sample • Bitter aftertaste intensity: bitter intensity 1 minute after tasting the sample
Data was analyzed with an ANOVA, with Sample as fixed effects and Panelist and interaction as random effects was used to determine significance between the samples for each attribute at the 95% Confidence Level, two-tailed. Fishers LSD was used to determine significant differences between mean scores.
The sensory profile of (i) 400 ppm CC-00326 was compared to (ii) 400 ppm Reb M 80% (rebaudioside M content 80% by weight on a dry basis). Both samples (i) and (ii) were formulated in a water matrix at 4° C.
The sensory profile of (i) 400 ppm CC-00342 was compared to (ii) 400 ppm Reb M 95% (rebaudioside M content 95% by weight on a dry basis). Both samples (i) and (ii) were formulated in a water matrix at 4° C.
The sensory profile of (i) 400 ppm CC-00345 was compared to (ii) 400 ppm Reb M 95% (rebaudioside M content 95% by weight on a dry basis). Both samples (i) and (ii) were formulated in a water matrix at 4° C.

[1] = Table 1 (CC-00326 vs Reb M 80%)
[2] = Table 2 (CC-00342 vs Reb M 95%)
[3] = Table 3 (CC-00345 vs Reb M 95%)
[4] = Table 3 (CC-00345 vs Reb M 95%), p = 0.08 at the 90% CL

Structure (SMILES)	Bitter Aftertaste Intensity [1]	Sweet Linger Intensity [1]	Overall Max Bitterness [1]	Overall Max Sweetness [1]	Bitter Intensity In Mouth [1]	Sweet Intensity In Mouth [1]	Bitter Aftertaste Intensity [2]	Sweet Linger Intensity [2]	Overall Max Bitterness [2]	Overall Max Sweetness [2]	Bitter Intensity In Mouth [2]	Sweet Intensity In Mouth [2]	Bitter Aftertaste Intensity [3]	Sweet Linger Intensity [3]	Overall Max Sweetness [3]	Overall Max Bitterness [4]	Bitter Intensity In Mouth [3]	Sweet Intensity In Mouth [3]
C=C1C[C@@]23CCC4[C@](C)(C(=O)OC5OC(COC6OC(CO)C(O)C(O)C6O)C(O)C(O)C5O)CCC[C@@]4(C)[C@@H]2CCC1(OC1OC(CO)C(O)C(OC2OC(CO)C(O)C(O)C2O)C1OC1OC(CO)C(O)C(O)C1O)C3 (stereo partly drawn) [CC-00326, 13-[(2-O-β-D-glucopyranosyl-3-O-β-D-glucopyranosyl-β-D-glucopyranosyl)oxy] ent-kaur-16-en-19-oic acid-[(6-O-α-D-glucopyranosyl-β-D-glucopyranosyl) ester]]	0.9 A	3.9 A	1.6 B	7.9 A	0.8 B	6.9 B												
C=C1C[C@@]23CCC4[C@](C)(C(=O)OC5OC(COC6OC(CO)C(O)C(O)C6O)C(O)C(O)C5OC5OC(CO)C(O)C(O)C5O)CCC[C@@]4(C)[C@@H]2CCC1(OC1OC(CO)C(O)C(OC2OC(CO)C(O)C(O)C2O)C1OC1OC(CO)C(O)C(O)C1O)C3 (stereo partly drawn) [CC-00342]							1.0	3.8 A	2.0	8.1 A	1.2	6.7 A						
C=C1C[C@@]23CCC4[C@](C)(C(=O)OC5OC(COC6OC(CO)C(O)C(O)C6O)C(O)C(OC6OC(CO)C(O)C(O)C6O)C5OC5OC(CO)C(O)C(O)C5O)CCC[C@@]4(C)[C@@H]2CCC1(OC1OC(CO)C(O)C(OC2OC(CO)C(O)C(O)C2O)C1OC1OC(CO)C(O)C(O)C1O)C3 (stereo partly drawn) [CC-00345]													1.8 A	3.9 A	7.2 A	2.2 A	1.3 A	6.6 A
C=C1C[C@@]23CC[C@H]4[C@@](C)(CCC[C@@]4(C)C(=O)O[C@@H]4O[C@H](CO)[C@@H](O)[C@H](O[C@@H]5O[C@H](CO)[C@@H](O)[C@H](O)[C@H]5O)[C@H]4O[C@@H]4O[C@H](CO)[C@@H](O)[C@H](O)[C@H]4O)[C@@H]2CC[C@]1(O[C@@H]1O[C@H](CO)[C@@H](O)[C@H](O[C@@H]2O[C@H](CO)[C@@H](O)[C@H](O)[C@H]2O)[C@H]1O[C@@H]1O[C@H](CO)[C@@H](O)[C@H](O)[C@H]1O)C3 [Reb M 80%, rebaudioside M]	1.1 A	4.3 A	2.3 A	9.0 A	1.6 A	8.3 A												
C=C1C[C@@]23CC[C@H]4[C@@](C)(CCC[C@@]4(C)C(=O)O[C@@H]4O[C@H](CO)[C@@H](O)[C@H](O[C@@H]5O[C@H](CO)[C@@H](O)[C@H](O)[C@H]5O)[C@H]4O[C@@H]4O[C@H](CO)[C@@H](O)[C@H](O)[C@H]4O)[C@@H]2CC[C@]1(O[C@@H]1O[C@H](CO)[C@@H](O)[C@H](O[C@@H]2O[C@H](CO)[C@@H](O)[C@H](O)[C@H]2O)[C@H]1O[C@@H]1O[C@H](CO)[C@@H](O)[C@H](O)[C@H]1O)C3 [Reb M 95%, rebaudioside M]							1.0	4.5 A	2.0	8.5 A	1.1	7.0 A	1.3 A	3.6 A	7.4 A	1.5 A	1.3 A	7.1 A
